Measurements reported in patent publication US9714951B2, “Pharmaceutical compositions containing peptides derived from human BPLP protein” (INSTITUT PASTEUR, priority 2004, dated 2017).
Entries after “also recorded” stand apart in the source; their conditions may differ. Ends that are not written are not given here.

Legend:
[1] = target: T1, human NEP (human ecto-endopeptidase activity, LNCaP cell line) (Homo sapiens, UniProt P08473); experiment: breakdown of substrate (substance P, McaBK2) by LNCaP human cell membranes; format: biochemical; conditions: for effect on substance P hydrolysis by cell surface ectopeptidases: bestatin 25 μM, captopril 10 μM
T1 construct: in the experimental model of static incubation of human LNCaP cell membranes; endogenous in cells; host or cells: LNCaP (human prostate adenocarcinoma) membrane preparation, NEP induced by DHT
T1 sequence (P08473 whole entry): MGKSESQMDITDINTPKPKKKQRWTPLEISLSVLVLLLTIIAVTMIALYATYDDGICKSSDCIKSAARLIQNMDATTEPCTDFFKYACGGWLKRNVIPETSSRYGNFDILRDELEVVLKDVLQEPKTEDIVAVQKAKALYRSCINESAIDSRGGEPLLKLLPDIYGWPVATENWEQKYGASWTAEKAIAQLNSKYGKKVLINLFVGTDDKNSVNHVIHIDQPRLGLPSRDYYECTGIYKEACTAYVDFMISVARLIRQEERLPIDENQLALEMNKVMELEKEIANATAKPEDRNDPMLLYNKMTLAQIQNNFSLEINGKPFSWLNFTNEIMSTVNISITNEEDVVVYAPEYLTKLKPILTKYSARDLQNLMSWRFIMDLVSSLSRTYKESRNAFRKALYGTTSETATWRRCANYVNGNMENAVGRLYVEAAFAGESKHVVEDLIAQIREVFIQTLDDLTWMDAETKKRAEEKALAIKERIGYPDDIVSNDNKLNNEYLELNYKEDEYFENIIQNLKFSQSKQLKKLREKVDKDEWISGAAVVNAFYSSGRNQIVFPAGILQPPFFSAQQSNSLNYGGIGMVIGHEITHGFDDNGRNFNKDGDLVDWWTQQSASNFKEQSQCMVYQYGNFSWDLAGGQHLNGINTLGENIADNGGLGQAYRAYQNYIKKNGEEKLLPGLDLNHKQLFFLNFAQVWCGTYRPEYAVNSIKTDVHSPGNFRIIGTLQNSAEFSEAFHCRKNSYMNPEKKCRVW

[2] = target: T2, soluble recombinant human DPP IV (Homo sapiens, UniProt P27487); experiment: endoproteolysis of substance P by soluble recombinant hDPPIV; format: biochemical; conditions: 25 or 50 μM peptide
T2 construct: (without the N-terminal cytosol and transmembrane segment)
T2 sequence (P27487 29-766 limits assumed): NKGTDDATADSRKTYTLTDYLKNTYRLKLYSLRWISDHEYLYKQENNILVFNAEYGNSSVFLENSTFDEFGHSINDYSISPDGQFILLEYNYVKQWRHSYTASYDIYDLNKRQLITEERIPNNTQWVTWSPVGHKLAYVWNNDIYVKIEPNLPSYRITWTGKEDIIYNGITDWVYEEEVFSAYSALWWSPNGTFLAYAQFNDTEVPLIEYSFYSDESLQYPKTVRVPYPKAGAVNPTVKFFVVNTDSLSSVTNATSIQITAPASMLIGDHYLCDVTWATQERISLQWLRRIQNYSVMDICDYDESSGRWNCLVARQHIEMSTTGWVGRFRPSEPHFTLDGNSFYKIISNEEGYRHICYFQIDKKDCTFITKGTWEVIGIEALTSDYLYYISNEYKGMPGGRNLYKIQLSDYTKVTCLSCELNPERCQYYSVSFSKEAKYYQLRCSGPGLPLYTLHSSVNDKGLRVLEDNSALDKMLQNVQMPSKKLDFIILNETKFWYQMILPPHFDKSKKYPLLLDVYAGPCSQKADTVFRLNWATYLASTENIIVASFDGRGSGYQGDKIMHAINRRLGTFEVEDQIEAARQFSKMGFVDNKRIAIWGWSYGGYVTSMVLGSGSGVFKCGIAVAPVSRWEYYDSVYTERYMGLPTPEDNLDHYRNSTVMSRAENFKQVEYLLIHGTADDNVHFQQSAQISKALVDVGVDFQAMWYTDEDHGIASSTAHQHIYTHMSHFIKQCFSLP

[3] = system: formalin-induced pain; conditions: iv; cited from earlier work
[4] = target: T3, rat NEP ecto-endopeptidase activity (renal tissue) (Rattus norvegicus, UniProt P07861); experiment: breakdown of substance P by rat renal NEP ecto-endopeptidase activity; format: biochemical
T3 construct: rat NEP ecto-endopeptidase activity (renal tissue); from tissue; host or cells: rat kidney (renal tissue)
T3 sequence (P07861 1-750): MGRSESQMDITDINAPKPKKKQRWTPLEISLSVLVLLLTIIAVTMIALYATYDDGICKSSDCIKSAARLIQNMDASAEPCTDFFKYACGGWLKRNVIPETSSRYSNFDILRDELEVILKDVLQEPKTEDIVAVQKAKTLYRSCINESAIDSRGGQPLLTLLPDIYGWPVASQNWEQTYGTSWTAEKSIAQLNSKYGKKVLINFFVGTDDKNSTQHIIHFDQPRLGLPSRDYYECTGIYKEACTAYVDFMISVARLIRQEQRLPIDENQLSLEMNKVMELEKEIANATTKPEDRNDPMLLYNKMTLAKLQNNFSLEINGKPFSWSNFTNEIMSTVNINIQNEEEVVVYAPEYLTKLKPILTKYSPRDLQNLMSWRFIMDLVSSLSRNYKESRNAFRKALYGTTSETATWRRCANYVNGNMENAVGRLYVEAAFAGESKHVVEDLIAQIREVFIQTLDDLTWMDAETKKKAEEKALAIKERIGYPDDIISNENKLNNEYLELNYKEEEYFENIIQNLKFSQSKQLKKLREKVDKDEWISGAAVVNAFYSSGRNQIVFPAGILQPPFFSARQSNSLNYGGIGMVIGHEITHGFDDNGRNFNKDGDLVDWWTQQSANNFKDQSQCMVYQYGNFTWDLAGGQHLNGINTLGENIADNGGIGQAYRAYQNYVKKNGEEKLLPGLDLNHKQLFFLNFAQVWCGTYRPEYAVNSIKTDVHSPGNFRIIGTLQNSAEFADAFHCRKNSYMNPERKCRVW
Description: Briefly, for membrane preparations, the cells were homogenised at 4° C. in 10 volumes (vol./wt.) of 50 mM Tris/HCl buffered at pH 7.1. A first centrifugation at 1000×g and 5° C. for 5 min allows to remove the cellular debris and the nuclei in the pellet. A second centrifugation at 100 000×g and 5° C. for 30 min concentrates the membrane fraction in the pellet, which will be superficially washed three times in cold Tris/HCl buffer, resuspended in fresh buffer, aliquoted and stored at −80° C. while waiting to be used as enzyme source.
Hydrolysis of substrates was measured by monitoring the metabolism rate in conditions of initial velocity measurement in the presence and absence of specific inhibitors. These were added to the preincubation medium. The standard reaction mixture consisted of cell membranes in a final volume of 200 μl Tris-HCl 50 mM pH 6.5-7.2. The substrate was added after preincubation for 10 min and the digestion carried out for 20 min at 25° C. in a constantly shaken water bath. The reaction was terminated by cooling to 4° C. and adding HCl (0.3N final concentration). The reaction tubes were then centrifuged (4700×g for 15 min at 4° C.) and the remaining intact substrate and its metabolites measured.
The intact tritiated substrate was eluted with 75-100% methanol-0.1% TFA (4 ml). • RP-HPLC coupled to a spectrophotometer was used to analyse the hydrolysis of Met-enkephalin, (C-18 LUNA column, AIT). […] Their identities and relative quantities (peak height) were checked by monitoring the column outflow at 264 nm (L3000, Merck). • The disappearance of the initial Met-enkephalin substrate was also quantified by radioimmunoassay (RIA). […] The radioactivity of each fraction was determined by liquid scintillation spectrometry.

[5] = system: formalin-induced pain; experiment: formalin test, behavioral rat model of acute pain; format: in vivo; conditions: for time spent in paw licking, early phase: first 20 min after formalin, vehicle 144±17 s
Source text: […]. […] […].

[6] = system: human cell surface endopeptidases; experiment: metabolism of YQRFSR by human cell membranes containing NEP (RP-HPLC); format: in vitro ADME; conditions: 175 μM
Source text: FIG. 8 is a RP-HPLC chromatographic analysis of the YQRFSR peptide (SEQ ID NO: 4).
The inventors used the tritiated 3H-YQRFSR peptide (SEQ ID NO: 4) to establish the pharmacokinetic and pharmacodynamic parameters, of this human functional peptidomimetic of rat sialorphin in vivo in adult male rat (biodistribution-bioavailability-clearance) as well as to define its metabolism mechanism and turnover in vivo and in vitro, (FIG. 8).

[7] = target: T4, soluble purified renal NEP (Oryctolagus cuniculus, UniProt P08049); conditions: DGNPA substrate, read-out: IC50 of inhibition of NEP activity; cited from earlier work
T4 construct: host or cells: kidney (purified, soluble)
T4 sequence (P08049 1-750): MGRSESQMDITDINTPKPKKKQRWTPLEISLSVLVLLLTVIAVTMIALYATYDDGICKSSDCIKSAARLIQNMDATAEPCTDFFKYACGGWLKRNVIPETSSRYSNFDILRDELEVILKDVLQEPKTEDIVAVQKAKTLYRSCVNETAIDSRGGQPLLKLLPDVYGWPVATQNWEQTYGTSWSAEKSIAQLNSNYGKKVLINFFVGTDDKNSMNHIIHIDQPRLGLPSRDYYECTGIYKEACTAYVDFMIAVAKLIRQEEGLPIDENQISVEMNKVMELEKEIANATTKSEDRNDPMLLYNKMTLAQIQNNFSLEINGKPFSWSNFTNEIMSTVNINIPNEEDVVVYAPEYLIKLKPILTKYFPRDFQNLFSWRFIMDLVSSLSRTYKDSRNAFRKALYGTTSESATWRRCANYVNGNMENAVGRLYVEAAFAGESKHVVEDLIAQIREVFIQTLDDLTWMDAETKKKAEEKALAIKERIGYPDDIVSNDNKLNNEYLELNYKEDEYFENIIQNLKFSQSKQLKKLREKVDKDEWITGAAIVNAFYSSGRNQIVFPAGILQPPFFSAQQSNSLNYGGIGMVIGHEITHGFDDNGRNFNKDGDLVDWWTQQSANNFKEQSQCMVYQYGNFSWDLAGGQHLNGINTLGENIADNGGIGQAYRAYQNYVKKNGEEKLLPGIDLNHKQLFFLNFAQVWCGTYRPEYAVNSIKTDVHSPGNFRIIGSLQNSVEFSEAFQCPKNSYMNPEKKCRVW

[8] = target: T5, spinal and renal NEP (Rattus norvegicus, UniProt P07861); conditions: membrane-bound NEP; read-out: IC50 of inhibition of the breakdown of substance P; cited from earlier work
T5 construct: host or cells: spinal cord and kidney tissue
T5 sequence (P07861 1-750): T3 sequence (P07861 1-750)

## CC(C)C[C@H](NC(=O)[C@@H](O)[C@H](N)Cc1ccccc1)C(=O)O [bestatin]
[1]
  effect on substance P hydrolysis by cell surface ectopeptidases: did not inhibit

## QRGPR (listed as Homo sapiens)
[1]; 20-90 μM
  effect on substance P endoproteolysis induced by LNCaP human cell membranes: no effect
[1]
  inhibitory potency towards ectoendopeptidase from human cells: ≧90 μM

## O=C(O)CNC(=O)C(CS)Cc1ccccc1 (stereo not shown) [thiorphan]
[1]; read-out: maximum inhibitory potency on LNCaP membrane activity
  inhibition at 0.5 µM: 62%

## QRFSR [QRFSR]
[2]
  effect on breakdown of SP by recombinant hDPPIV: no effect; also recorded: not prevented

## CSCC[C@H](N)CSSCC(Cc1ccccc1)C(=O)N[C@@H](Cc1ccccc1)C(=O)OCc1ccccc1 (stereo partly shown) [RB101]
[3]
  effective doses in formalin-induced pain model: 2.5 to 5 mg/kg

## C[C@H](CS)C(=O)N1CCC[C@H]1C(=O)O [captopril]
[1]
  effect on substance P hydrolysis by cell surface ectopeptidases: did not inhibit

## QHNP (listed as Rattus rattus)
[4]
  inhibitory potency towards ectoendopeptidase from rat tissues: ≧50 μM

## N=C(N)NCCC[C@H](NC(=O)[C@H](CO)NC(=O)[C@H](Cc1ccccc1)NC(=O)[C@H](CCCNC(=N)N)NC(=O)[C@H](CCC(N)=O)NC(=O)[C@@H](N)Cc1ccc(O)cc1)C(=O)O [YQRFSR]
[1]
  inhibitory potency towards ectoendopeptidase from human cells: 5 to 50 µM
[1]; peptide 175 μM
  inhibition of substance P endoproteolysis by human cell membranes: 70%
[4]
  IC50: 38 µM
  inhibitory potency towards ectoendopeptidase from rat tissues: 5 to 75 µM
[5]; 0.5 mg/kg systemic
  time spent in paw licking, early phase: 97 ± 14 s
[5]; 1 mg/kg systemic
  time spent in paw licking, early phase: 84 ± 13 s
[5]; 1 mg/kg, 40 to 60 min after formalin, vehicle 63±13 s
  time spent in paw licking, late phase: 9 ± 3 s
[5]; with nalaxone
  analgesia in the presence of an opioid receptor antagonist: totally reversed
[6]; in vitro
  metabolism by human cell membranes containing NEP: not metabolized
[6]; with human cell membranes containing NEP, 94% in absence of membranes
  recovered as intact peptide: 93%

## QHNPR
[1]; human LNCaP vs rodent NEP
  inhibitory potency against membrane-anchored human NEP (LNCaP) relative to rodent NEP (rat, rabbit), fold lower: about 10 fold
[1]
  inhibitory potency towards ectoendopeptidase from human cells: 4 to 40 µM
[4]
  inhibitory potency towards ectoendopeptidase from rat tissues: 0.4 to 4 µM
[3]
  effective doses in formalin-induced pain model: 0.1 to 0.2 mg/kg
[7]
  IC50: 0.6 µM
[8]
  IC50: 0.4 to 1 µM

## QRGPRGP (listed as Homo sapiens)
[1]
  inhibitory potency towards ectoendopeptidase from human cells: ≧90 μM
